Source: ChEMBL document CHEMBL1149853, “Cannabinoid ester constituents from high-potency Cannabis sativa” (J Nat Prod, 2008)
≈ marks a conversion by molar mass, not a printed value. Calls of active or inactive are those of the source. No cut-off for these calls is given here.

What was measured:
[1] = biological target: Cannabinoid receptor 1 (Homo sapiens) (UniProt P21554); test: Binding affinity to CB1 receptor
Plasmodium falciparum [2] = test: Antimicrobial activity against Plasmodium falciparum W2; assay type: functional, organism-based
Candida albicans = test: Antimicrobial activity against Candida albicans ATCC 90028; assay type: functional, organism-based
Plasmodium falciparum [3] = test: Antimicrobial activity against Plasmodium falciparum D6; assay type: functional, organism-based

Chain of Cannabinoid receptor 1 (Homo sapiens) (P21554 whole entry): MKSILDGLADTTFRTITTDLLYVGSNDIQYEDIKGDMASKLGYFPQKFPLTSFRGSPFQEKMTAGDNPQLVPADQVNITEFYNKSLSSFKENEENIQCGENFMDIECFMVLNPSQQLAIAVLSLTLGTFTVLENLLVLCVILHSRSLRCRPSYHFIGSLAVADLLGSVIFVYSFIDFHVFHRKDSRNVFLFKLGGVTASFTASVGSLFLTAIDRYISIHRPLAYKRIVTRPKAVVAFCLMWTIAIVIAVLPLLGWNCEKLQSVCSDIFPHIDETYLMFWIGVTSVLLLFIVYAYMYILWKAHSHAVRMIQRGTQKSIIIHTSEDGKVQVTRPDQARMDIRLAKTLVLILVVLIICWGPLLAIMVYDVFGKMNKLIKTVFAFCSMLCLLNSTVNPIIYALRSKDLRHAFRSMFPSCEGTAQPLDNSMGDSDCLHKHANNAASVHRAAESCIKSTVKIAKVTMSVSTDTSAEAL

SMILES | Activity [1] | other results
CCCCCc1cc(O)c(C/C=C(\C)CCC=C(C)C)c(O)c1C(=O)OC(C)(C)[C@@H]1CC[C@@]2(C)CCCC(C)=C2C1 | inactive | –
CCCCCc1cc(O)c(C/C=C(\C)CCC=C(C)C)c(O)c1C(=O)O | inactive | –
CCCCCc1cc2c(c(O)c1C(=O)OC1(C(C)C)CC=C(C)CC1)-c1cc(C)ccc1C(C)(C)O2 (configuration not stated) | inactive | IC50 (Plasmodium falciparum [2]): 2.4 µg/mL (≈ 4.89 µM); IC50 (Candida albicans): 8.5 µg/mL (≈ 17.3 µM); IC50 (Plasmodium falciparum [3]): 2.7 µg/mL (≈ 5.5 µM)
CCCCCc1cc2c(c(O)c1C(=O)O[C@@H]1C(C)(C)[C@@H]3CC[C@@]1(C)C3)[C@@H]1C=C(C)CC[C@H]1C(C)(C)O2 | inactive | –
CCCCCc1cc2c(c(O)c1C(=O)OC(C)(C)C1CC=C(C)CC1)[C@@H]1C=C(C)CC[C@H]1C(C)(C)O2 (some centres not stated) | inactive | –
CCCCCc1cc2c(c(O)c1C(=O)O[C@@]1(C)CC[C@@H](C(C)C)[C@@H]3C=C(C)CC[C@H]31)[C@@H]1C=C(C)CC[C@H]1C(C)(C)O2 | inactive | –
CCCCCc1cc2c(c(O)c1C(=O)O)[C@@H]1C=C(C)CC[C@H]1C(C)(C)O2 | inactive | –
CCCCCc1cc2c(c(O)c1C(=O)OC(C)(C)[C@@H]1CC[C@@]3(C)CCCC(C)=C3C1)[C@@H]1C=C(C)CC[C@H]1C(C)(C)O2 | inactive | –
CCCCCc1cc2c(c(O)c1C(=O)O[C@H]1C(C)(C)[C@@H]3CC[C@@]1(C)C3)[C@@H]1C=C(C)CC[C@H]1C(C)(C)O2 | inactive | –
CCCCCc1cc2c(c(O)c1C(=O)O[C@H]1C[C@H]3CC[C@@]1(C)C3(C)C)[C@@H]1C=C(C)CC[C@H]1C(C)(C)O2 | inactive | –
CCCCCc1cc2c(c(O)c1C(=O)OC1(C(C)C)CC=C(C)CC1)[C@@H]1C=C(C)CC[C@H]1C(C)(C)O2 (some centres not stated) | inactive | –
CCCCCc1cc2c(c(O)c1C(=O)O)-c1cc(C)ccc1C(C)(C)O2 | inactive | –
CCCCCc1cc2c(c(O)c1C(=O)O[C@H]1C[C@H]3CC[C@]1(C)C3(C)C)[C@@H]1C=C(C)CC[C@H]1C(C)(C)O2 | inactive | –
CCCCCc1cc(O)c(C/C=C(\C)CCC=C(C)C)c(O)c1C(=O)O[C@@]1(C)CC[C@@H](C(C)C)[C@@H]2C=C(C)CC[C@H]21 | inactive | –
